Assay results taken from patent publication US12492199B2, “Pyridopyrimidines as histamine H4-receptor inhibitors” (FAES FARMA, S.A., priority 2018, dated 2025).

target: human H4 receptor (Homo sapiens (Human), UniProt Q9H3N8); test: H4 Binding assay ([3H]histamine competition, membranes from CHO-K1 cells transfected with human H4 receptor); conditions: affinity for human histamine H4 receptor, class symbols; read-out: ACTIVITY CLASS hH4R (Ki)
Protocol: Affinity for histamine H4-receptor was determined by H4 Binding assay:
• Membranes from CHO-K1 cells transfected with human H4 receptor and microplates of 96-well format were used. • For competition studies cell membranes were homogenated in Tris-HCl 50 mM, EDTA 5 mM, pH 7.4 and added to the microplate at the concentration of approximately 15 μg/well. […] Non specific binding was defined using 10 μM unlabeled histamine and the total incubation volume was 275 μl per well. • Incubations were performed under gentle agitation at 25° C. for 60 min and concluding with a rapid vacuum filtration using pre-soaked filters (0.5% polyethylenimine). After ten rapid washes with cold wash buffer (50 mM Tris-HCl buffer) the filter plates were dried at room temperature for 30 min. • Finally, scintillation liquid (Microscint 20) was added to the whole microplate in order to measure the radioactivity reattained on the filters using a specific scintillation counter (Top Count—NXT). […] H1 Binding Assay Materials

| Ki | Compound |
| --- | --- |
| < 100 nM | CN1CCN(c2nc(NCCS(=O)(=O)Nc3ccc(Cl)cc3)c3cc(Cl)ncc3n2)CC1 [Example 82, 2-((6-chloro-2-(4-methylpiperazin-1-yl)pyrido[3,4-d]pyrimidin-4-yl)amino)-N-(4-chlorophenyl)ethane-1-sulfonamide] |
| < 100 nM | CN1CCN(c2nc(NCCS(=O)(=O)Nc3cccc(Cl)c3)c3cc(Cl)ncc3n2)CC1 [Example 76, 2-((6-chloro-2-(4-methylpiperazin-1-yl)pyrido[3,4-d]pyrimidin-4-yl)amino)-N-(3-chlorophenyl)ethane-1-sulfonamide] |
| < 1000 nM | CCCc1cc2c(NCCc3cccs3)nc(N3CCN(C)CC3)nc2cn1 [Example 50, 2-(4-methylpiperazin-1-yl)-6-propyl-N-(2-(thiophen-2-yl)ethyl)pyrido[3,4-d]pyrimidin-4-amine] |
| < 100 nM | CN(c1ccccc1)S(=O)(=O)CCNc1nc(N2CCNCC2)nc2cnc(Cl)cc12 [Example 27, 2-((6-chloro-2-(piperazin-1-yl)pyrido[3,4-d]pyrimidin-4-yl)amino)-N-methyl-N-phenylethane-1-sulfonamide] |
| < 100 nM | CN1CCN(c2nc(NCCS(=O)(=O)NCc3ccccc3)c3cc(Cl)ncc3n2)CC1 [Example 15, N-benzyl-2-((6-chloro-2-(4-methylpiperazin-1-yl)pyrido[3,4-d]pyrimidin-4-yl)amino)ethane-1-sulfonamide] |
| < 1000 nM | CN1CCN(c2nc(NCc3ncc[nH]3)c3cc(Cl)ncc3n2)CC1 [Example 8, N-((1H-imidazol-2-yl)methyl)-6-chloro-2-(4-methylpiperazin-1-yl)pyrido[3,4-d]pyrimidin-4-amine] |
| < 1000 nM | CN1CCN(c2nc(NCCS(=O)(=O)Nc3cccc(Cl)n3)c3cc(Cl)ncc3n2)CC1 [Example 87, 2-((6-chloro-2-(4-methylpiperazin-1-yl)pyrido[3,4-d]pyrimidin-4-yl)amino)-N-(6-chloropyridin-2-yl)ethane-1-sulfonamide] |
| < 100 nM | CN1CCN(c2nc(NCCS(=O)(=O)N3CCOCC3)c3cc(Cl)ncc3n2)CC1 [Example 18, 6-chloro-2-(4-methylpiperazin-1-yl)-N-(2-(morpholinosulfonyl)ethyl)pyrido[3,4-d]pyrimidin-4-amine] |
| < 1000 nM | CCCCNc1nc(N2CCN(C)CC2)nc2cnc(Cl)cc12 [Example 22, N-butyl-6-chloro-2-(4-methylpiperazin-1-yl)pyrido[3,4-d]pyrimidin-4-amine] |
| < 100 nM | CN1CCN(c2nc(NCCS(=O)(=O)NCc3ccccn3)c3cc(Cl)ncc3n2)CC1 [Example 88, 2-((6-chloro-2-(4-methylpiperazin-1-yl)pyrido[3,4-d]pyrimidin-4-yl)amino)-N-(pyridin-2-ylmethyl)ethane-1-sulfonamide] |
| < 1000 nM | CN1CCN(c2nc(NCCc3nccs3)c3cc(Cl)ncc3n2)CC1 [Example 70, 6-chloro-2-(4-methylpiperazin-1-yl)-N-(2-(thiazol-2-yl)ethyl)pyrido[3,4-d]pyrimidin-4-amine] |
| < 100 nM | CSc1cccc(NS(=O)(=O)CCNc2nc(N3CCN(C)CC3)nc3cnc(Cl)cc23)c1 [Example 81, 2-((6-chloro-2-(4-methylpiperazin-1-yl)pyrido[3,4-d]pyrimidin-4-yl)amino)-N-(3-(methylthio)phenyl)ethane-1-sulfonamide] |
| < 100 nM | O=S(=O)(CCNc1nc(N2CCN3CCCC3C2)nc2cnc(Cl)cc12)Nc1ccccc1 (centres unmarked) [Example 37, 2-((6-chloro-2-(hexahydropyrrolo[1,2-a]pyrazin-2(1H)-yl)pyrido[3,4-d]pyrimidin-4-yl)amino)-N-phenylethane-1-sulfonamide] |
| < 1000 nM | CC(C)c1cc2c(NCc3ccco3)nc(N3CCN(C)CC3)nc2cn1 [Example 51, N-(furan-2-ylmethyl)-6-isopropyl-2-(4-methylpiperazin-1-yl)pyrido[3,4-d]pyrimidin-4-amine] |

same assay, conditions: histamine H4 receptor binding

| IC50 | Compound |
| --- | --- |
| 889 nM | CN1CCN(c2nc(NCc3cccs3)c3cnc(Cl)cc3n2)CC1 [Example 3P, reference compound] |

same assay, conditions: histamine H4 receptor binding; compounds initially evaluated at 1 μM

| inhibition at 1 µM | Compound |
| --- | --- |
| 68% | CN1CCN(c2nc(NCc3cccs3)c3cnc(Cl)cc3n2)CC1 [Example 3P, reference compound] |

same assay, conditions: histamine H4 receptor, comparative compounds; read-out: Ki

| Ki | Compound |
| --- | --- |
| 340 nM | CN1CCN(c2nc(NCc3cccs3)c3cnc(Cl)cc3n2)CC1 [Example 3P, reference compound] |
